Source: patent US20060147485A1, “Oil-in-water formulation of avermectins” (priority 2005, published 2006)

How the values were obtained:
[1] = Stability of Abamectin in water at various pH-values and temperatures (dark, HPLC); type: physicochemical
Method: The stability of Abamectin in water at various pH-values and temperatures was determined. 194.4 mg of abamectin was dissolved in 10 ml methanol and 1 ml of the solution transferred to 100 ml of de-mineralised water and a part of this was transferred to a buffer solution. The sample was kept in the dark and the solution analysed using a HPLC.

[2] = Stability of Abamectin in water exposed to light at various pH-values (HPLC); type: physicochemical; details: Light (5000-6000 lux)
Method: The stability of Abamectin in water exposed to light at various pH-values was determined. 194.4 mg of abamectin was dissolved in 10 ml methanol and 1 ml of the solution transferred to 100 ml of demineralised water and a part of this transferred to a buffer solution. The solution was exposed to light (5000-6000 lux) at 25° C. and analysed using a HPLC.

For Abamectin, the “Abemectin concentration (ppm)” value ([1]; pH 4.0, 25 ° C., 7 days) was 3.130 ppm, the “Abemectin concentration (ppm)” value ([1]; pH 4.0, 25 ° C., 14 days) was 2.782 ppm and the “Abemectin concentration (ppm)” value ([1]; pH 4.0, 25 ° C., 21 days) was 2.566 ppm. The “Abemectin concentration (ppm)” value ([1]; pH 4.0, 25 ° C., 28 days) was 2.524 ppm, the “Abemectin concentration (ppm)” value ([1]; pH 4.0, 25 ° C., Initial) was 3.495 ppm and the “Abemectin concentration (ppm)” value ([1]; pH 4.0, 50 ° C., 7 days) was 1.054 ppm. For the same substance, the “Abemectin concentration (ppm)” value ([1]; pH 4.0, 50 ° C., 14 days) was 0.383 ppm, the “Abemectin concentration (ppm)” value ([1]; pH 4.0, 50 ° C., 21 days) was 0.123 ppm and the “Abemectin concentration (ppm)” value ([1]; pH 4.0, 50 ° C., 28 days) was 0.0609 ppm. The “Abemectin concentration (ppm)” value ([1]; pH 4.0, 50 ° C., Initial) was 3.495 ppm, the “Abemectin concentration (ppm)” value ([1]; pH 7.0, 25 ° C., 7 days) was 3.188 ppm and the “Abemectin concentration (ppm)” value ([1]; pH 7.0, 25 ° C., 14 days) was 3.040 ppm. For the same substance, the “Abemectin concentration (ppm)” value ([1]; pH 7.0, 25 ° C., 21 days) was 2.829 ppm, the “Abemectin concentration (ppm)” value ([1]; pH 7.0, 25 ° C., 28 days) was 2.676 ppm and the “Abemectin concentration (ppm)” value ([1]; pH 7.0, 25 ° C., Initial) was 3.327 ppm. For the same substance, the “Abemectin concentration (ppm)” value ([1]; pH 7.0, 50 ° C., 7 days) was 2.952 ppm, the “Abemectin concentration (ppm)” value ([1]; pH 7.0, 50 ° C., 14 days) was 2.780 ppm and the “Abemectin concentration (ppm)” value ([1]; pH 7.0, 50 ° C., 21 days) was 2.194 ppm. For the same substance, the “Abemectin concentration (ppm)” value ([1]; pH 7.0, 50 ° C., 28 days) was 1.949 ppm, the “Abemectin concentration (ppm)” value ([1]; pH 7.0, 50 ° C., Initial) was 3.327 ppm and the “Abemectin concentration (ppm)” value ([1]; pH 9.0, 25 ° C., 7 days) was 3.005 ppm. For the same substance, the “Abemectin concentration (ppm)” value ([1]; pH 9.0, 25 ° C., 14 days) was 2.596 ppm, the “Abemectin concentration (ppm)” value ([1]; pH 9.0, 25 ° C., 21 days) was 2.380 ppm and the “Abemectin concentration (ppm)” value ([1]; pH 9.0, 25 ° C., 28 days) was 2.287 ppm. For the same substance, the “Abemectin concentration (ppm)” value ([1]; pH 9.0, 25 ° C., Initial) was 3.555 ppm, the “Abemectin concentration (ppm)” value ([1]; pH 9.0, 50 ° C., 7 days) was 1.265 ppm and the “Abemectin concentration (ppm)” value ([1]; pH 9.0, 50 ° C., 14 days) was 0.519 ppm. For the same substance, the “Abemectin concentration (ppm)” value ([1]; pH 9.0, 50 ° C., 21 days) was 0.205 ppm, the “Abemectin concentration (ppm)” value ([1]; pH 9.0, 50 ° C., 28 days) was 0.0628 ppm and the “Abemectin concentration (ppm)” value ([1]; pH 9.0, 50 ° C., Initial) was 3.555 ppm. For the same substance, the “Abemectin concentration (ppm)” value ([2]; pH 4.0, 25° C., 7 days) was 2.923 ppm, the “Abemectin concentration (ppm)” value ([2]; pH 4.0, 25° C., 14 days) was 2.332 ppm and the “Abemectin concentration (ppm)” value ([2]; pH 4.0, 25° C., 21 days) was 1.961 ppm. For the same substance, the “Abemectin concentration (ppm)” value ([2]; pH 4.0, 25° C., 28 days) was 1.666 ppm, the “Abemectin concentration (ppm)” value ([2]; pH 4.0, 25° C., Initial) was 3.495 ppm and the “Abemectin concentration (ppm)” value ([2]; pH 7.0, 25° C., 7 days) was 2.941 ppm. The “Abemectin concentration (ppm)” value ([2]; pH 7.0, 25° C., 14 days) was 2.529 ppm, the “Abemectin concentration (ppm)” value ([2]; pH 7.0, 25° C., 21 days) was 2.223 ppm and the “Abemectin concentration (ppm)” value ([2]; pH 7.0, 25° C., 28 days) was 2.034 ppm. The “Abemectin concentration (ppm)” value ([2]; pH 7.0, 25° C., Initial) was 3.327 ppm, the “Abemectin concentration (ppm)” value ([2]; pH 9.0, 25° C., 7 days) was 3.163 ppm and the “Abemectin concentration (ppm)” value ([2]; pH 9.0, 25° C., 14 days) was 2.810 ppm. The “Abemectin concentration (ppm)” value ([2]; pH 9.0, 25° C., 21 days) was 2.360 ppm, the “Abemectin concentration (ppm)” value ([2]; pH 9.0, 25° C., 28 days) was 2.173 ppm and the “Abemectin concentration (ppm)” value ([2]; pH 9.0, 25° C., Initial) was 3.555 ppm.
